Where “and” joins values, the source holds several entries; their conditions need not be identical. Equal entries are not always repeated. Entries after “also recorded” stand apart in the source; their conditions may differ. Where two headings read alike, the source gives them in different places. Values belong to the molecule of their own block, whether it stands above or below them.
Assays:
[1] = target: T1, prostaglandin I2 (PGI2) receptor (IP) (Homo sapiens, UniProt P43119); assay: IP receptor cAMP assay (agonist mode); assay type: cell-based; conditions: Table 20; agonist mode; NC = too inactive to realistically calculate; * partial agonists or odd dose-response curves
T1 construct: expressed in transfected cells; host or cells: CHO-K1
T1 sequence (P43119 whole entry): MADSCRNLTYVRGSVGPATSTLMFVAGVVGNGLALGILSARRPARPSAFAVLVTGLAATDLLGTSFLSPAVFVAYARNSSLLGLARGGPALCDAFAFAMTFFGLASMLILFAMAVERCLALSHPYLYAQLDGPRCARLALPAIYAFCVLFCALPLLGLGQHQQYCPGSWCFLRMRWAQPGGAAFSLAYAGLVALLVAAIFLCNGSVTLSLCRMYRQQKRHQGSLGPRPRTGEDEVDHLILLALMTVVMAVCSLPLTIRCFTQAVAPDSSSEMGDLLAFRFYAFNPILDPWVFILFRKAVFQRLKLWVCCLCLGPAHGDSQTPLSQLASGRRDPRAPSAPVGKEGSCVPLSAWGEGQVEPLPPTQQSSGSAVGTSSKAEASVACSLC

[2] = target: T2, prostaglandin D2 (PGD2) receptor 1 (DP1) (Homo sapiens, UniProt Q13258); assay: DP1 receptor cAMP assay (agonist mode); assay type: cell-based
T2 construct: expressed in transfected cells; host or cells: HEK293T
T2 sequence (Q13258 1-359): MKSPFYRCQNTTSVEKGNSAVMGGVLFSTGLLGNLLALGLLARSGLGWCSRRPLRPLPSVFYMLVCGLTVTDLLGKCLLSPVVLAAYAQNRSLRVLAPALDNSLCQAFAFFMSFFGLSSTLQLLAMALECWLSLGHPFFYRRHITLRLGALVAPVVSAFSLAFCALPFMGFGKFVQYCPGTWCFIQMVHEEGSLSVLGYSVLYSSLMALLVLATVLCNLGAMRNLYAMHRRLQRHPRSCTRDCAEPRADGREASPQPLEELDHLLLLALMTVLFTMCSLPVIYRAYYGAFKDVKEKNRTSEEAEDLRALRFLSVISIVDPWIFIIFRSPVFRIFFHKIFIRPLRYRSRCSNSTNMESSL

[3] = Stability and formation of treprostinil in rat cryopreserved hepatocytes
Protocol: (§1) Mixed-gender human cryopreserved hepatocytes, male Sprague-Dawley rat cryopreserved hepatocytes, and male Beagle dog cryopreserved hepatocytes were purchased from XenoTech. The hepatocytes were thawed and prepared according to the vendor's instructions, pooled into Krebs Henseleit buffer (KHB, pH 7.4), and kept on ice prior to the experiments. […] The final DMSO content in the incubation mixture was ≤0.1%. […] Aliquots of the test article were withdrawn (n=1) at 0, 15, 30, 60, and 120 minutes. […] Aliquots of 7-HC were withdrawn (n=1) at 0 and 15 minutes. The reaction was immediately terminated by adding two volumes of ice-cold acetonitrile (ACN) to the test article samples and three volumes of ACN containing internal standard to the positive control samples.

[4] = Clinical signs and mortality after single oral gavage or IV bolus dose in rats; assay type: in vivo
Protocol: Animals received a single dose via oral gavage or intravenous (bolus) injection. The following parameters and end points were evaluated in this study: clinical signs and pharmacokinetic parameters. Single males in the oral 50 mg/kg prodrugs XVII and VI group were found dead on Day 2. No macroscopic findings were noted. All other animals survived to the scheduled euthanasia.
Animals were not removed from the cage during observations, unless necessary for identification or confirmation of possible findings.
The animals were removed from the cage, and a detailed clinical observation was performed on the day of animal selection. Cage side observations were performed at 1 to 2 hours post dose. Animals were weighed individually following receipt, on the day of randomization, and on each day of dosing (prior to dosing). Individual body weights are presented below.
All surviving animals were euthanized and discarded. A necropsy was conducted for animals that died on study, and specified tissues were saved.

[5] = Stability and formation of treprostinil in human cryopreserved hepatocytes
Protocol: as §1

[6] = Stability and formation of treprostinil in dog cryopreserved hepatocytes
Protocol: as §1

[7] = for Dose proportionality of mean treprostinil Cmax and AUC0-24hr: PO 1 to 50 mg/kg prodrug
[8] = single IV bolus 1 mg/kg, male Crl:CD(SD) rats
[9] = single oral 50 mg/kg, male Crl:CD(SD) rats
[10] = single oral 50 mg/kg, male Crl:CD(SD) rats, 50 mg/kg
[11] = treprostinil in plasma, single IV bolus 1 mg/kg prodrug, male rats
[12] = treprostinil in plasma, single PO 1 mg/kg prodrug, male rats
[13] = parent prodrug in plasma, single IV bolus 1 mg/kg, male rats
[14] = parent prodrug in plasma, single PO 1, 10 and 50 mg/kg (all PO groups), male rats
[15] = parent prodrug in plasma, single PO or IV bolus, male rats
[16] = treprostinil in plasma, male rats
[17] = treprostinil in plasma, single IV bolus 1 mg/kg prodrug, individual animals, male rats
[18] = treprostinil in plasma, single PO 10 mg/kg prodrug, male rats
[19] = male, Sprague-Dawley, rat, 15 min, 100 μM, pH 7.4
[20] = both, human, 15 min, 100 μM, pH 7.4
[21] = male, Beagle, dog, 15 min, 100 μM, pH 7.4

EC50 Fold Different from Treprostinil, IP Receptor [1]: 208x | EC50 Fold Different from Treprostinil, DP1 Receptor ([2]; Table 20, agonist mode, NC = too inactive to realistically calculate, * partial agonists or odd dose-response curves): 217x*
SMILES: CCCCC[C@H](O)CC[C@@H]1[C@H]2Cc3cccc(OCC(=O)O)c3C[C@H]2C[C@H]1OC [Prodrug LXIII, treprostinil cyclopentyl methyl ether]

SMILES: CCCCC[C@@H](CC[C@@H]1[C@H]2Cc3cccc(OCC(=O)O)c3C[C@H]2C[C@H]1O)OP(=O)(O)O [Prodrug VI, treprostinil side chain phosphate]
Treprostinil Concentration, 0 min [3]: 0.128 µM | Treprostinil Concentration, 15 min [3]: 0.693 µM | Treprostinil Concentration, 30 min [3]: 0.635 µM | Treprostinil Concentration, 60 min [3]: 0.564 µM | Treprostinil Concentration, 120 min [3]: 0.53 µM | Test article-related (adverse) clinical observations [4, 8]: adverse clinical observations | Test article-related (adverse) clinical observations [4, 9]: adverse clinical observations | Mortality [4, 10]: found dead; also recorded: lethality | Activity, DP1 Relative to Tre ([2]; Table 24, relative to treprostinil EC50 values, * partial agonists or ambiguous dose-response curves, image character = too high to realistically calculate): 2x | Treprostinil Concentration, 0 min [5]: 0 µM | Treprostinil Concentration, 15 min [5]: 0.223 µM | Treprostinil Concentration, 30 min [5]: 0.365 µM | Treprostinil Concentration, 60 min [5]: 0.466 µM | Treprostinil Concentration, 120 min [5]: 0.540 µM | Treprostinil Concentration, 0 min [6]: 0.0124 µM | Treprostinil Concentration, 15 min [6]: 0.581 µM | Treprostinil Concentration, 30 min [6]: 0.609 µM | Treprostinil Concentration, 60 min [6]: 0.533 µM | Treprostinil Concentration, 120 min [6]: 0.548 µM | T1/2 of prodrug (single animal) ([7]; parent prodrug, single PO 50 mg/kg, single animal, male rats): 1.76 h | Prodrug plasma concentrations ([7]; rat, in vivo, iv, 1 mg/kg): BLQ | Prodrug plasma concentrations (BQL) ([7]; rat, in vivo, iv, 1 mg/kg): < 1.00 ng/mL | Prodrug plasma concentrations ([7]; rat, in vivo, po, 1 mg/kg): BLQ | Prodrug plasma concentrations ([7]; rat, in vivo, po, 10 mg/kg): BLQ | AUCINF of prodrug (single animal) ([7]; rat, in vivo, po, 50 mg/kg): 28.2 ng·h/mL | Mean AUC0-24hr of prodrug ([7]; rat, in vivo, po, 50 mg/kg): 242 ng·h/mL | Prodrug quantifiable up to (time postdose) ([7]; rat, in vivo, po, 50 mg/kg): 2, 4, 8, or 24 hours | Mean T1/2 of treprostinil [7, 11]: 1.90 h | Mean Cl/F of treprostinil [7, 12]: 448.33 mL/min/kg | Mean T1/2 of treprostinil [7, 12]: 14.0 h

SMILES: CCCCC[C@@H](CC[C@@H]1[C@H]2Cc3cccc(OCC(=O)O)c3C[C@H]2C[C@H]1O)OC(=O)OCC [Prodrug XVI, treprostinil side chain ethyl carbonate]
Test article-related (adverse) clinical observations [4, 8]: adverse clinical observations | Mortality [4, 9]: found dead | Test article-related (adverse) clinical observations [4, 9]: adverse clinical observations | Prodrug plasma concentrations [7, 13]: BLQ | Prodrug plasma concentrations [7, 14]: BLQ | Prodrug plasma concentrations (BQL) [7, 15]: < 1.00 ng/mL | Dose proportionality of mean treprostinil Cmax and AUC0-24hr [7, 16]: less than dose proportional manner | Individual AUCINF of treprostinil [7, 17]: 183 ng·h/mL | Individual Cl of treprostinil [7, 17]: 91.17 mL/min/kg | Individual Vz of treprostinil [7, 17]: 5700 mL/kg | Individual T1/2 of treprostinil ([7]; treprostinil in plasma, single IV bolus 1 mg/kg prodrug, individual animals, male rats, 1 mg/kg): 43.3 min and 66 min | Mean AUC0-12hr of treprostinil [7, 11]: 192 ng·h/mL | Mean C0 of treprostinil [7, 11]: 549 ng/mL | Mean Cmax of treprostinil [7, 11]: 263 ng/mL | Mean T1/2 of treprostinil [7, 11]: 0.912 h | Treprostinil quantifiable up to (time postdose) [7, 11]: 2 h | Individual AUC0-12hr of treprostinil ([7]; treprostinil in plasma, single IV bolus 1 mg/kg prodrug, male rats, 1 mg/kg): 171 ng·h/mL and 214 ng·h/mL | Treprostinil quantifiable up to (time postdose) [7, 18]: 24 h | Treprostinil quantifiable up to (time postdose) ([7]; treprostinil in plasma, single PO 50 mg/kg prodrug, male rats): 24 h | PO bioavailability (% F) of treprostinil, based on mean AUCall/Dose ([7]; PO 1 mg/kg prodrug vs IV bolus 1 mg/kg prodrug, male rats, 1 mg/kg): 5.94% and 7.74% | PO bioavailability (% F) of treprostinil, based on mean AUCall/Dose ([7]; PO 10 mg/kg prodrug vs IV bolus 1 mg/kg prodrug, male rats): 6.35% and 3.17% | PO bioavailability (% F) of treprostinil, based on mean AUCall/Dose ([7]; PO 50 mg/kg prodrug vs IV bolus 1 mg/kg prodrug, male rats): 4.13% and 3.72%

SMILES: CCCCC[C@@H](CC[C@@H]1[C@H]2Cc3cccc(OCC(=O)O)c3C[C@H]2C[C@H]1O)OC(=O)OC(C)C [Prodrug XVII, treprostinil side chain isopropyl carbonate]
Test article-related (adverse) clinical observations [4, 8]: adverse clinical observations | Test article-related (adverse) clinical observations [4, 9]: adverse clinical observations | Mortality [4, 10]: found dead; also recorded: lethality | Prodrug plasma concentrations [7, 13]: BLQ | Prodrug plasma concentrations [7, 14]: BLQ | Prodrug plasma concentrations (BQL) [7, 15]: < 1.00 ng/mL | Dose proportionality of mean treprostinil Cmax and AUC0-24hr [7, 16]: less than dose proportional manner | Mean AUC0-12hr of treprostinil [7, 11]: 274 ng·h/mL | Mean C0 of treprostinil [7, 11]: 1350 ng/mL | Mean Cmax of treprostinil [7, 11]: 466 ng/mL | Treprostinil quantifiable up to (time postdose) [7, 18]: 24 h

Formation Rate of 7-HC-G (glucuronide) [3, 19]: 91.4 pmol/min/10^6 cells | Formation Rate of 7-HC-S (sulfate) [3, 19]: 24.7 pmol/min/10^6 cells | Formation Rate of 7-HC-G (glucuronide) [5, 20]: 97.7 pmol/min/10^6 cells | Formation Rate of 7-HC-S (sulfate) [5, 20]: 10.8 pmol/min/10^6 cells | Formation Rate of 7-HC-G (glucuronide) [6, 21]: 114 pmol/min/10^6 cells | Formation Rate of 7-HC-S (sulfate) [6, 21]: 35.9 pmol/min/10^6 cells
SMILES: O=c1ccc2ccc(O)cc2o1 [7-hydroxycoumarin, reference compound]

SMILES: CCCCC[C@@H](CC[C@@H]1[C@H]2Cc3cccc(OCC(=O)O)c3C[C@H]2C[C@H]1O)OC(=O)OC [Prodrug IV]
Test article-related (adverse) clinical observations ([4]; rat, in vivo, iv, 1 mg/kg): adverse clinical observations | Test article-related (adverse) clinical observations ([4]; rat, in vivo, po, 50 mg/kg): adverse clinical observations | Dose proportionality of mean prodrug Cmax ([7]; parent prodrug, PO 10 to 50 mg/kg, male rats): approximately dose proportional manner | PO bioavailability (% F) of prodrug, based on mean AUCall/Dose ([7]; rat, in vivo): 1.04% | Individual AUCINF of prodrug ([7]; rat, in vivo, iv, 1 mg/kg): 41.5 to 144 ng·h/mL | Individual C0 of prodrug ([7]; rat, in vivo, iv, 1 mg/kg): 65.6 to 759 ng/mL | Individual Cl of prodrug ([7]; rat, in vivo, iv, 1 mg/kg): 115.7 to 401.67 mL/min/kg | Individual T1/2 of prodrug ([7]; rat, in vivo, iv, 1 mg/kg): 5.46 to 16.6 min | Individual Vz of prodrug ([7]; rat, in vivo, iv, 1 mg/kg): 2690 to 3610 mL/kg | Mean AUC0-12hr of prodrug ([7]; rat, in vivo, iv, 1 mg/kg): 94.4 ng·h/mL | Mean AUCINF of prodrug ([7]; rat, in vivo, iv, 1 mg/kg): 98.7 ng·h/mL | Mean C0 of prodrug ([7]; rat, in vivo, iv, 1 mg/kg): 324 ng/mL | Mean Cl of prodrug ([7]; rat, in vivo, iv, 1 mg/kg): 223.33 mL/min/kg | Mean T1/2 of prodrug ([7]; rat, in vivo, iv, 1 mg/kg): 12.7 min | Mean Vz of prodrug ([7]; rat, in vivo, iv, 1 mg/kg): 3150 mL/kg | Prodrug quantifiable up to (time postdose) ([7]; rat, in vivo, iv, 1 mg/kg): 1 or 2 hours | Prodrug quantifiable up to (time postdose) ([7]; rat, in vivo, po, 10 mg/kg): 1 h | AUCINF of prodrug (single animal) ([7]; rat, in vivo, po, 50 mg/kg): 65.4 ng·h/mL | Cl/F of prodrug (single animal) ([7]; rat, in vivo, po, 50 mg/kg): 12733.3 mL/min/kg | Individual AUC0-24hr of prodrug ([7]; rat, in vivo, po, 50 mg/kg): 49.2 ng·h/mL | Prodrug quantifiable up to (time postdose) ([7]; rat, in vivo, po, 50 mg/kg): 1, 2, 8, or 12 hours | T1/2 of prodrug (single animal) ([7]; rat, in vivo, po, 50 mg/kg): 4.27 h | Vz/F of prodrug (single animal) ([7]; rat, in vivo, po, 50 mg/kg): 4710000 mL/kg

— patent US11634443B2, “Treprostinil prodrugs” (United Therapeutics Corporation, priority 2019, dated 2023)
